Data reported in ChEMBL document CHEMBL4330110, “Discovery of an isocoumarin analogue that modulates neuronal functions via neurotrophin receptor TrkB” (Bioorg Med Chem Lett, 2019).
Active and inactive are the calls of the source. No cut-off for these calls is given here.

Assays:
[1] = target: Luciferin 4-monooxygenase (Photinus pyralis) (UniProt P08659); assay: Activation of firefly luciferase activity expressed in HEK293T cells after 6 hrs by luminescence assay; format: cell-based
[2] = target: T1, BDNF/NT-3 growth factors receptor (Homo sapiens, UniProt Q16620); assay: Agonist activity at EGFP-fused TrkB receptor (unknown origin) expressed in HEK293T cells assessed as increase in ERK1/2 phosphorylation after 15 mins by Western blot analysis; format: cell-based
Target sequence in this assay (Q16620 32-822 limits assumed): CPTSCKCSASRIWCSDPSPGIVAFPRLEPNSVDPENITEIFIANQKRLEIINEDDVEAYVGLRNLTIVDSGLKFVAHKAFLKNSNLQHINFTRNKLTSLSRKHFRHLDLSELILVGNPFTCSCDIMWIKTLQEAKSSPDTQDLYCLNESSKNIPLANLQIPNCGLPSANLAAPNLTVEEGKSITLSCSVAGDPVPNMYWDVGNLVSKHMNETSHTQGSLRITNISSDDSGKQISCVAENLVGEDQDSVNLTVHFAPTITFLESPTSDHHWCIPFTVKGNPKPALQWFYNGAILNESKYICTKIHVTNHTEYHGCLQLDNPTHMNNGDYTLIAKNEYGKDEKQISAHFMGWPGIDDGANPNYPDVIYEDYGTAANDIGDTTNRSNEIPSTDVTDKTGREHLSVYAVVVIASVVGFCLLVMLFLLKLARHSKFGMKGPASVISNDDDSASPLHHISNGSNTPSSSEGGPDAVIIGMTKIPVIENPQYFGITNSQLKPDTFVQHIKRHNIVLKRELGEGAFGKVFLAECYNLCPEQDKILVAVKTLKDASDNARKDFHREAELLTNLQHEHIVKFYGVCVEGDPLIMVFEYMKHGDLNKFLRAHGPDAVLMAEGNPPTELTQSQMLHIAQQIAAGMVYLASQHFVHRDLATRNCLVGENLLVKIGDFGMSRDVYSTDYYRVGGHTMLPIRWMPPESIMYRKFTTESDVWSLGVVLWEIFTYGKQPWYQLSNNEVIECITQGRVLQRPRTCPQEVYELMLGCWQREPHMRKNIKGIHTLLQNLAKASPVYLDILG

[3] = target: T1, BDNF/NT-3 growth factors receptor; assay: Agonist activity at EGFP-fused TrkB receptor (unknown origin) expressed in HEK293T cells assessed as increase in TrkB phosphorylation at Y705 residue at 1 uM after 10 to 15 mins by Western blot analysis; format: cell-based
Target sequence in this assay (Q16620 32-822 limits assumed): as above

[4] = target: T1, BDNF/NT-3 growth factors receptor; assay: Agonist activity at EGFP-fused TrkB receptor (unknown origin) expressed in HEK293T cells after 6 hrs by luciferase reporter gene assay; format: cell-based
Target sequence in this assay (Q16620 whole entry, the tested form may be a part): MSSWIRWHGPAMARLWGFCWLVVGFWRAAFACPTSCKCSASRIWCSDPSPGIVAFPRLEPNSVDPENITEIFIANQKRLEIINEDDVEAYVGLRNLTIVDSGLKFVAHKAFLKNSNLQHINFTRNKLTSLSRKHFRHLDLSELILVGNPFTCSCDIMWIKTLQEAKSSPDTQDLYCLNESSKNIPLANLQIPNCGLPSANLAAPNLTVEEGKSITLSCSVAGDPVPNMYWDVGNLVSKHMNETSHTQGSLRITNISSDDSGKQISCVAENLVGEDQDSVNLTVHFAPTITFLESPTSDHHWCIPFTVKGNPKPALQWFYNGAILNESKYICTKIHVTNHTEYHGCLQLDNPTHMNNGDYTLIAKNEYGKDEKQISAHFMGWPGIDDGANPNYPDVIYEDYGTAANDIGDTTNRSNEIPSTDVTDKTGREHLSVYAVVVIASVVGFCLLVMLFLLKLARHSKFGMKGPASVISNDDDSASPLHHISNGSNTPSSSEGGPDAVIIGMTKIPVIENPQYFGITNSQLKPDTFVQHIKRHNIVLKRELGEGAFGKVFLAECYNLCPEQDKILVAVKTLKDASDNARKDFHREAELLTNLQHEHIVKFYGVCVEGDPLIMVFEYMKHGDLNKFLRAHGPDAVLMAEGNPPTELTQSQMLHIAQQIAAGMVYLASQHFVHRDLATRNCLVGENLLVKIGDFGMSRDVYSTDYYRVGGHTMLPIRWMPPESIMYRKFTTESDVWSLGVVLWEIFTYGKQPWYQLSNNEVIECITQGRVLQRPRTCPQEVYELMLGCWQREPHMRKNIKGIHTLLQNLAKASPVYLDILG

Homo sapiens = species: Homo sapiens; assay: Selectivity ratio of EC50 for RFP-fused TrkA receptor (unknown origin) expressed in HEK293T cells to EC50 for […] receptor (unknown origin) expressed in HEK293T cells; format: cell-based
[5] = target: T2, High affinity nerve growth factor receptor (Homo sapiens, UniProt P04629); assay: Agonist activity at RFP-fused TrkA receptor (unknown origin) expressed in HEK293T cells assessed as increase in TrkA phosphorylation at Y490 residue at 1 uM after 10 to 15 mins by Western blot analysis; format: cell-based
Target sequence in this assay (P04629 33-796 limits assumed): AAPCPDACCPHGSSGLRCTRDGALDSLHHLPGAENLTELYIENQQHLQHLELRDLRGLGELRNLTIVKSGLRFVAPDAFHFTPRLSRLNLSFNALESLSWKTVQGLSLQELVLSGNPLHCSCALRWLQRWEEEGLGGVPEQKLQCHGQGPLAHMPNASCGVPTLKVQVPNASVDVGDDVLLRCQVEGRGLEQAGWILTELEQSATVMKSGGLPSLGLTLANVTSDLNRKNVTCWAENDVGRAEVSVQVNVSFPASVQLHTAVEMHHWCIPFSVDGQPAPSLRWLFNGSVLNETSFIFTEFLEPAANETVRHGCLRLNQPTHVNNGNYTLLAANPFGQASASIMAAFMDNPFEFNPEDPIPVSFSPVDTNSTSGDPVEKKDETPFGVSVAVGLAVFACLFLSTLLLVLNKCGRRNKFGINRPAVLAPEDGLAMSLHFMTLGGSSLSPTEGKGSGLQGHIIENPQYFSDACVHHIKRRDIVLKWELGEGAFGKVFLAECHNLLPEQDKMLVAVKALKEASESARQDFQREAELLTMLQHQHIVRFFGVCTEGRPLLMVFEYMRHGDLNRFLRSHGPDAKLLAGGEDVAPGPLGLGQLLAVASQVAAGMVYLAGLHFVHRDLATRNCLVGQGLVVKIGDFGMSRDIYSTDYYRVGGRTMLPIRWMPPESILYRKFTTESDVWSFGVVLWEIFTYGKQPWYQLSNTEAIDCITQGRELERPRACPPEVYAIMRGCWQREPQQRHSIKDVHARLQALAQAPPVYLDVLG

[6] = target: BDNF/NT-3 growth factors receptor (Mus musculus) (UniProt P15209); assay: Agonist activity at TrkB receptor in Swiss mouse primary cortical neurons transfected with AAV2 Tdtomato assessed as increase in dendritic arborization at 100 nM after 72 hrs by confocal microscopic analysis
BDNF/NT-3 growth factors receptor (Mus musculus), sequence (P15209 whole entry, the tested form may be a part): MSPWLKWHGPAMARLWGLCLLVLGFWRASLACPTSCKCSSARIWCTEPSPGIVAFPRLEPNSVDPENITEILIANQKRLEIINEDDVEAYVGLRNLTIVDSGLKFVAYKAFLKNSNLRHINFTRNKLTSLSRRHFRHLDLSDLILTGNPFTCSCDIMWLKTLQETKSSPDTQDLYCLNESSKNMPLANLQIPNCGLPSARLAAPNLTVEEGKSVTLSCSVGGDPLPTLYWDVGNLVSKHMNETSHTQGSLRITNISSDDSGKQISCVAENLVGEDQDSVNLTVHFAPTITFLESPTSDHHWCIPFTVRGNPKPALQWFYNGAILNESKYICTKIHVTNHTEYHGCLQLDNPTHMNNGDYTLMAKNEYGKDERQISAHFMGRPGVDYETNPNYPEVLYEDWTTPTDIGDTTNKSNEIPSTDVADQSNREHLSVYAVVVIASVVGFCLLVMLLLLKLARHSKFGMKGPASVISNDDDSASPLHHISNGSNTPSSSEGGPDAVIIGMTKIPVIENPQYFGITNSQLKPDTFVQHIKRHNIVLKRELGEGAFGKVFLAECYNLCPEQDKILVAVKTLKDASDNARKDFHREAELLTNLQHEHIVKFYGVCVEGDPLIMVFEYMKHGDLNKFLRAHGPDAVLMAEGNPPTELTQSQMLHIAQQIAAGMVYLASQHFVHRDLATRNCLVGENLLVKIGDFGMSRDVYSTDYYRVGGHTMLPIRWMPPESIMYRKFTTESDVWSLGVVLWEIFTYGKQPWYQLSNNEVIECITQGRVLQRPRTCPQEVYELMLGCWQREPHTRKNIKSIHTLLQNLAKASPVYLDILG

[7] = target: T1, BDNF/NT-3 growth factors receptor; assay: Agonist activity at EGFP-fused TrkB receptor (unknown origin) expressed in HEK293T cells assessed as increase in TrkB phosphorylation at Y705 residue after 10 to 15 mins by Western blot analysis; format: cell-based
Target sequence in this assay (Q16620 32-822 limits assumed): as the sequence (Q16620 32-822 limits assumed) above

[8] = target: BDNF/NT-3 growth factors receptor (Mus musculus) (UniProt P15209); assay: Agonist activity at TrkB receptor in Swiss mouse primary cortical neurons assessed as increase in TrkB phosphorylation at Y705 residue after 15 mins by Western blot analysis
[9] = target: T2, High affinity nerve growth factor receptor; assay: Agonist activity at RFP-fused TrkA receptor (unknown origin) expressed in HEK293T cells after 6 hrs by luciferase reporter gene assay; format: cell-based
Target sequence in this assay (P04629 whole entry, the tested form may be a part): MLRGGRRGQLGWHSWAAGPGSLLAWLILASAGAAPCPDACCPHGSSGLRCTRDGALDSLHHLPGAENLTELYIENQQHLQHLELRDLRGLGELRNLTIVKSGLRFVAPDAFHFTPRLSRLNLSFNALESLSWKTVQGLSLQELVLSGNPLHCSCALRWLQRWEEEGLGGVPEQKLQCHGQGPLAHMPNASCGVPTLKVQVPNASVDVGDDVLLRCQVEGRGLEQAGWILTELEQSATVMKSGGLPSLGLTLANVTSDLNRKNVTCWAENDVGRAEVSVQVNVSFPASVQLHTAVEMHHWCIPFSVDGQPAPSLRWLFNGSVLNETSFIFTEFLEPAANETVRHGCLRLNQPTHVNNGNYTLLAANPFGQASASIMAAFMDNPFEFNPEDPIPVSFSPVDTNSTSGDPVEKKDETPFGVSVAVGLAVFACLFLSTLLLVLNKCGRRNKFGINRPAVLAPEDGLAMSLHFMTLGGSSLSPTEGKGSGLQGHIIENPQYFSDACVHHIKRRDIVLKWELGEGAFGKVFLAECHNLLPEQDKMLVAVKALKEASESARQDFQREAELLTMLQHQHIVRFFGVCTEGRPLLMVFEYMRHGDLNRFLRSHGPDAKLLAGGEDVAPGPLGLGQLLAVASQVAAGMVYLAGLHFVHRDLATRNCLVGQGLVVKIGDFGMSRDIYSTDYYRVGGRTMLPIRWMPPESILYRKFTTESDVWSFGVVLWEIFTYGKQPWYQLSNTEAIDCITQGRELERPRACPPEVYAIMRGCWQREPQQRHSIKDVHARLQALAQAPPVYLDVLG

[10] = target: BDNF/NT-3 growth factors receptor (Mus musculus) (UniProt P15209); assay: Agonist activity at TrkB receptor in Swiss mouse primary cortical neurons assessed as increase in MAP2 expression after 72 hrs by Western blot analysis
[11] = target: BDNF/NT-3 growth factors receptor (Mus musculus) (UniProt P15209); assay: Agonist activity at TrkB receptor in Swiss mouse primary cortical neurons assessed as increase in PSD95 expression after 72 hrs by Western blot analysis

Luciferin 4-monooxygenase (Photinus pyralis), sequence (P08659 whole entry, the tested form may be a part): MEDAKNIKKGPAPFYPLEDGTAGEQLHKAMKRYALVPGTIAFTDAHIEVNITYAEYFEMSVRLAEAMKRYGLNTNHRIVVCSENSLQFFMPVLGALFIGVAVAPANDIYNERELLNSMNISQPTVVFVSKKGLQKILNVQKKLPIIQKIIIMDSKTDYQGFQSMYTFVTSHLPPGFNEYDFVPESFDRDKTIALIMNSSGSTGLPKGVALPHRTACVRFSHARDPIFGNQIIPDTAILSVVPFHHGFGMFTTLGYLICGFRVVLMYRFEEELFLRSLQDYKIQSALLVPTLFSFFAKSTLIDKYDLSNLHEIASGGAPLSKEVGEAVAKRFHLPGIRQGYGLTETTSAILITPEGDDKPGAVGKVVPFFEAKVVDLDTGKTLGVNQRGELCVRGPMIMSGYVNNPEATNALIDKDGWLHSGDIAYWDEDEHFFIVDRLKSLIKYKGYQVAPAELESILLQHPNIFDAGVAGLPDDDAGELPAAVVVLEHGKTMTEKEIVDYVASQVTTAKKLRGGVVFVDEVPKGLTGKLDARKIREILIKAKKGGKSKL

SMILES | Activity [1] | Activity [2] | Activity [3] | EC50 [4] [nM] | Ratio EC50 (Homo sapiens) | Activity [5] | Activity [6] | Activity [7] | Activity [8] | EC50 [9] [nM] | Activity [10] | Activity [11]
COc1ccc(-c2cc3cccc(O)c3c(=O)o2)cc1 | inactive | Dose-dependent effect | Active | 87.2 | > 7 | Active | Active | Dose-dependent effect | Dose-dependent effect | 667 | Dose-dependent effect | inactive
O=c1oc(-c2ccc3c(c2)OCO3)cc2cccc(O)c12 | – | – | Active | – | – | – | – | – | – | – | – | –
